In patent publication USRE48711E1, “Apoptosis signal-regulating kinase inhibitors” (Gilead Sciences, Inc., priority 2009, dated 2021):
pIC50: −log10 of the molar value.

Each molecule was assayed against ASK1 (Apoptosis Signal-Regulating Kinase 1) (Homo sapiens (Human), UniProt Q99683) (assay: ASK1 (Apoptosis Signal-Regulating Kinase 1) TR-FRET Kinase Assay (Biochemical IC50)). Settings: TR-FRET, biotin-MBP substrate, 20 min pre-incubation, ATP added as 300 μM solution.
Sequence of ASK1 (Apoptosis Signal-Regulating Kinase 1) (Q99683 649-946): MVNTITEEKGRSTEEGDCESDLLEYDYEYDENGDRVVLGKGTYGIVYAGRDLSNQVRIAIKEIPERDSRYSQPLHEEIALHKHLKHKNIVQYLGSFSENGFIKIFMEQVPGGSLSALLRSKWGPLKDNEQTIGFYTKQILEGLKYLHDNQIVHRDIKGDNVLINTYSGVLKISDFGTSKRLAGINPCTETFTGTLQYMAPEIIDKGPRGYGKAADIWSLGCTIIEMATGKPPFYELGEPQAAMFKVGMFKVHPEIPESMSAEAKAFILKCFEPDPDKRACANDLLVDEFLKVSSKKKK
Work on `Cc1nccn1-c1ccnc(C(=O)Nc2cccc(-c3nncn3C3CC3)c2)c1` [Example 41, N-(3-(4-cyclopropyl-4H-1,2,4-triazol-3-yl)phenyl)-4-(2-methyl-1H-imidazol-1-yl)picolinamide] yielded a pIC50 of 7.32. In the case of `C[C@@H](n1cnnc1-c1cccc(NC(=O)c2cc(-c3cccnc3)ccn2)c1)C(F)(F)F` [Example 62, (R)-N-(3-(4-(1,1,1-trifluoropropan-2-yl)-4H-1,2,4-triazol-3-yl)phenyl)-3,4′-bipyridine-2′-carboxamide], the pIC50 was 5.91. With `CC(C)N1CCc2ncc(-c3ccnc(C(=O)Nc4cccc(-c5nncn5C5CC5)c4)c3)cc2C1` [Example 172, N-(3-(4-cyclopropyl-4H-1,2,4-triazol-3-yl)phenyl)-4-(6-isopropyl-5,6,7,8-tetrahydro-1,6-naphthyridin-3-yl)picolinamide] the pIC50 was 7.77. With `C[C@H](n1cnnc1-c1cccc(NC(=O)c2cc(-c3cccnc3)ccn2)c1)C(F)(F)F` [Example 63, (S)-N-(3-(4-(1,1,1-trifluoropropan-2-yl)-4H-1,2,4-triazol-3-yl)phenyl)-3,4′-bipyridine-2′-carboxamide] the pIC50 was 7.68. Molecule `Cn1cnc2cc(-c3ccnc(C(=O)Nc4cccc(-c5nncn5C5CC5)c4)c3)cnc21` [Example 143, N-(3-(4-cyclopropyl-4H-1,2,4-triazol-3-yl)phenyl)-4-(3-methyl-3H-imidazo[4,5-b]pyridin-6-yl)picolinamide] has a pIC50 of 7.82. With `CC(C)c1cn(-c2cccc(C(=O)Nc3cccc(-c4nncn4C4CC4)n3)c2)cn1` [Example 193, N-(6-(4-cyclopropyl-4H-1,2,4-triazol-3-yl)pyridin-2-yl)-3-(4-isopropyl-1H-imidazol-1-yl)benzamide] the pIC50 was 8.30. Work on `O=C(Nc1cccc(-c2nncn2C2CC2)c1)c1cc(-c2ccc(OC3CCC3)nc2)ccn1` [Example 95, 6-cyclobutoxy-N-(3-(4-cyclopropyl-4H-1,2,4-triazol-3-yl)phenyl)-3,4′-bipyridine-2′-carboxamide] yielded a pIC50 of 7.51. For `COc1cncc(-c2ccnc(C(=O)Nc3cccc(-c4nncn4C4CC4)c3)c2)c1` [Example 71, N-(3-(4-cyclopropyl-4H-1,2,4-triazol-3-yl)phenyl)-5-methoxy-3,4′-bipyridine-2′-carboxamide], the pIC50 was 7.77. In the case of `CCN1CCN(c2ccnc(C(=O)Nc3cccc(-c4nncn4C4CC4)c3)c2)CC1=O` [Example 177, N-(3-(4-cyclopropyl-4H-1,2,4-triazol-3-yl)phenyl)-4-(4-ethyl-3-oxopiperazin-1-yl)picolinamide], the pIC50 was 7.33. In the case of `O=C(Nc1cccc(-c2nncn2C2CC2)c1)c1cc(-c2ccc(NC3CC3)nc2)ccn1` [Example 120, N-(3-(4-cyclopropyl-4H-1,2,4-triazol-3-yl)phenyl)-6-(cyclopropylamino)-3,4′-bipyridine-2′-carboxamide], the pIC50 was 8.22. Molecule `Cc1cc(-c2ccc(C3CC3)nc2)cc(C(=O)Nc2cccc(-c3nncn3C3CC3)c2)n1` [Example 249, 6-cyclopropyl-N-(3-(4-cyclopropyl-4H-1,2,4-triazol-3-yl)phenyl)-6′-methyl-3,4′-bipyridine-2′-carboxamide] has a pIC50 of 7.15. `O=C(Nc1cccc(-c2nncn2C2CC2)n1)c1cc(-n2cnc(C3CC3)c2)ccn1` [Example 170, 4-(4-cyclopropyl-1H-imidazol-1-yl)-N-(6-(4-cyclopropyl-4H-1,2,4-triazol-3-yl)pyridin-2-yl)picolinamide] was tested, and the pIC50 was 8.15. `O=C(Nc1cccc(-c2nncn2C2CC2)c1)c1cc(-c2ccc(OC3CC3)nc2)ccn1` [Example 104, 6-cyclopropoxy-N-(3-(4-cyclopropyl-4H-1,2,4-triazol-3-yl)phenyl)-3,4′-bipyridine-2′-carboxamide] gave a pIC50 of 7.92. `O=C(Nc1cccc(-c2nncn2C2CC2)n1)c1cccc(-c2cnc3ccccc3c2)c1` [Example 150, N-(6-(4-cyclopropyl-4H-1,2,4-triazol-3-yl)pyridin-2-yl)-3-(quinolin-3-yl)benzamide] gave a pIC50 of 7.77. With `Cn1c(-c2ccnc(C(=O)Nc3cccc(-c4nncn4C4CC4)c3)c2)cnc1-c1ccccc1` [Example 116, N-(3-(4-cyclopropyl-4H-1,2,4-triazol-3-yl)phenyl)-4-(1-methyl-2-phenyl-1H-imidazol-5-yl)picolinamide] the pIC50 was 7.64. In the case of `O=C(Nc1cccc(-c2nncn2C2CC2)n1)c1cc(-c2cccnc2)ccn1` [Example 54, N-(6-(4-cyclopropyl-4H-1,2,4-triazol-3-yl)pyridin-2-yl)-3,4′-bipyridine-2′-carboxamide], the pIC50 was 8.30. `C[C@H](n1cnnc1-c1cccc(NC(=O)c2cc(-c3ccc(C4CC4)nc3)ccn2)c1)C(C)(C)C` [Example 242, (S)-6-cyclopropyl-N-(3-(4-(3,3-dimethylbutan-2-yl)-4H-1,2,4-triazol-3-yl)phenyl)-3,4′-bipyridine-2′-carboxamide] was tested, and the pIC50 was 5.95. `CC(C)[C@H](C)n1cnnc1-c1cccc(NC(=O)c2cc(-c3ccc(C4CC4)nc3)ccn2)c1` [Example 238, (S)-6-cyclopropyl-N-(3-(4-(3-methylbutan-2-yl)-4H-1,2,4-triazol-3-yl)phenyl)-3,4′-bipyridine-2′-carboxamide] gave a pIC50 of 8.22. With `O=C(Nc1cccc(-c2nncn2C2CC2)c1)c1cc(-n2cnc3ncccc32)ccn1` [Example 81, N-(3-(4-cyclopropyl-4H-1,2,4-triazol-3-yl)phenyl)-4-(1H-imidazo[4,5-b]pyridin-1-yl)picolinamide] the pIC50 was 7.80. With `Cc1ncn(-c2cccc(C(=O)Nc3cccc(-c4nncn4C4CC4)n3)c2)c1C` [Example 211, N-(6-(4-cyclopropyl-4H-1,2,4-triazol-3-yl)pyridin-2-yl)-3-(4,5-dimethyl-1H-imidazol-1-yl)benzamide] the pIC50 was 8.05. With `O=C(Nc1cccc(-c2nncn2C2CC2)n1)c1cc(-n2cnc(C3CC3)c2)c2ccccc2n1` [Example 226, 4-(4-cyclopropyl-1H-imidazol-1-yl)-N-(6-(4-cyclopropyl-4H-1,2,4-triazol-3-yl)pyridin-2-yl)quinoline-2-carboxamide] the pIC50 was 7.80. For `O=C(Nc1cccc(-c2cncn2C2CC2)n1)c1cc(-c2cnc3ccccc3c2)ccn1` [Example 126, N-(6-(1-cyclopropyl-1H-imidazol-5-yl)pyridin-2-yl)-4-(quinolin-3-yl)picolinamide], the pIC50 was 5.98. `CC(C)(C)NC(=O)c1cncc(-c2ccnc(C(=O)Nc3cccc(-c4nncn4C4CC4)c3)c2)c1` [Example 75, N5-tert-butyl-N2′-(3-(4-cyclopropyl-4H-1,2,4-triazol-3-yl)phenyl)-3,4′-bipyridirie-2′,5-dicarboxamide] showed a pIC50 of 8.00. `CS(=O)(=O)c1ccc(-c2ccnc(C(=O)Nc3cccc(-c4nncn4C4CC4)c3)c2)cc1` [Example 79, N-(3-(4-cyclopropyl-4H-1,2,4-triazol-3-yl)phenyl)-4-(4-(methylsulfonyl)phenyl)picolinamide] showed a pIC50 of 8.22. Work on `O=C(Nc1cccc(-c2nncn2C2CC2)n1)c1cc(-c2ccc(C3CC3)nc2)ccn1` [Example 100, 6-cyclopropyl-N-(6-(4-cyclopropyl-4H-1,2,4-triazol-3-yl)pyridin-2-yl)-3,4′-bipyridine-2′-carboxamide] yielded a pIC50 of 8.22. In the case of `C[C@@H](C(=O)OC(C)(C)C)n1cnnc1-c1cccc(NC(=O)c2cc(-c3ccc(C4CC4)nc3)ccn2)c1` [Example 222, (S)-tert-butyl 2-(3-(3-(6-cyclopropyl-3,4′-bipyridine-2′-carboxamido)phenyl)-4H-1,2,4-triazol-4-yl)propanoate], the pIC50 was 7.10. `O=C(Nc1ccnc(-c2nncn2C2CC2)c1)c1cc(-c2cnc3ccccc3c2)ccn1` [Example 153, N-(2-(4-cyclopropyl-4H-1,2,4-triazol-3-yl)pyridin-4-yl)-4-(quinolin-3-yl)picolinamide] was tested, and the pIC50 was 6.39. `COc1ccc(C(=O)Nc2cccc(-c3nncn3C3CC3)n2)cc1-n1cnc(C2CC2)c1` [Example 228, 3-(4-cyclopropyl-1H-imidazol-1-yl)-N-(6-(4-cyclopropyl-4H-1,2,4-triazol-3-yl)pyridin-2-yl)-4-methoxybenzamide] was tested, and the pIC50 was 8.15. For `Cc1ccncc1-c1ccnc(C(=O)Nc2cccc(-c3nncn3C3CC3)c2)c1` [Example 57, N-(3-(4-cyclopropyl-4H-1,2,4-triazol-3-yl)phenyl)-4-methyl-3,4′-bipyridine-2′-carboxamide], the pIC50 was 6.61. `CCC(C)n1cnnc1-c1cccc(NC(=O)c2cc(-c3ccc(C4CC4)nc3)ccn2)c1` (stereo not drawn) [Example 229, N-(3-(4-sec-butyl-4H-1,2,4-triazol-3-yl)phenyl)-6-cyclopropyl-3,4′-bipyridine-2′-carboxamide] showed a pIC50 of 7.00. `CC(C)(O)c1ccc(-c2ccnc(C(=O)Nc3cccc(-c4nncn4C4CC4)n3)c2)cn1` [Example 166, N-(6-(4-cyclopropyl-4H-1,2,4-triazol-3-yl)pyridin-2-yl)-6-(2-hydroxypropan-2-yl)-3,4′-bipyridine-2′-carboxamide] was tested, and the pIC50 was 8.30. In the case of `COc1ccc(-c2ccnc(C(=O)Nc3cccc(-c4nncn4C4CC4)c3)c2)cn1` [Example 21, N-(3-(4-cyclopropyl-4H-1,2,4-triazol-3-yl)phenyl)-6-methoxy-3,4′-bipyridine-2′-carboxamide], the pIC50 was 7.92. `O=C(Nc1cccc(-c2nncn2C2CC2)c1)c1cc(-c2cnc(C3CC3)nc2)ccn1` [Example 123, N-(3-(4-cyclopropyl-4H-1,2,4-triazol-3-yl)phenyl)-4-(2-cyclopropylpyrimidin-5-yl)picolinamide] showed a pIC50 of 8.00. `COC(=O)Nc1ccc(-c2ccnc(C(=O)Nc3cccc(-c4nncn4C4CC4)c3)c2)cn1` [Example 23, methyl 2′-(3-(4-cyclopropyl-4H-1,2,4-triazol-3-yl)phenylcarbamoyl)-3,4′-bipyridin-6-ylcarbamate] gave a pIC50 of 6.78. `O=C(Nc1cccc(-c2nncn2C2CC2)c1)c1cccc(-c2ccc(C3CC3)nc2)n1` [Example 263, 6′-cyclopropyl-N-(3-(4-cyclopropyl-4H-1,2,4-triazol-3-yl)phenyl)-2,3′-bipyridine-6-carboxamide] gave a pIC50 of 5.44. With `COc1ccc(-n2cnc(C3CC3)c2)cc1C(=O)Nc1cccc(-c2nncn2C2CC2)c1` [Example 272, 5-(4-cyclopropyl-1H-imidazol-1-yl)-N-(3-(4-cyclopropyl-4H-1,2,4-triazol-3-yl)phenyl)-2-methoxybenzamide] the pIC50 was 7.96.
